This note sets out measurements from US20190062305A1, “PYRIDYL OR PYRAZINYL COMPOUNDS CARRYING A METHYL-BOUND ALPHA-AMINO ACID AMIDE GROUP” (ABBVIE DEUTSCHLAND GMBH & CO. KG, priority 2015, published 2019).

Molecules are shown by their SMILES. Where a name gives a salt, the structure may show the parent alone. Read-outs that look alike come from different tables or passages of the source. Bounds are passed on as bounds.

In one data set the target is T1, 5-HT2C receptor (Homo sapiens, UniProt P28335).
T1 construct: host or cells: U2OS
As to the kind of experiment: Human 5-HT2C functional assay (beta-arrestin2 recruitment, U2OS_HTR2C_β-Arrestin cells). It counts as cell-based. As to conditions: for EC50: beta-arrestin2 recruitment, U2OS_HTR2C_β-Arrestin cells, 1.5 h incubation, read-out: EC50 5-HT2C (potency in functional assay); for Emax / % efficacy: relative efficacy vs response to 10 μM 5-HT or maximal 5-HT effect (100%). The method in brief:
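EC50 and relative efficacy came from 4-parameter variable-slope fits, normalised to 10 µM 5-HT or maximal 5-HT response (100%). Luminescent β-galactosidase enzyme-complementation signal was read after 1.5 h compound exposure in U2OS_HTR2C_β-Arrestin cells held in 1% serum medium from the prior day.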

Data set [1] in a line: Metabolic stability in human liver microsomes, unbound intrinsic clearance (Cl int/fu mic). The class given is in vitro ADME. As to conditions: 0.5 μM compound, NADPH; for CLint scaled at 0.5 μM: pH 7.4, human liver microsomes 0.25 mg/mL, read-out: Cl int, mic unb. (h) [l/h/kg] (unbound intrinsic clearance, human); for Cl int, mic unb. (h) [l/h/kg] (unbound intrinsic clearance, human): human liver microsomes 0.25 mg/mL. A digest of the protocol: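 Unbound intrinsic clearance is CLint divided by fu mic, with the unbound fraction measured by 4 h HTDialysis at 37 °C of 0.25 mg/ml microsomes spiked with 0.5 µM compound. For CLint, 0.5 µM compound was incubated with 0.25 mg/mL human microsomes and 1.0 mM NADPH (pH 7.4, 37 °C). Substrate loss over 30 min was measured by LC-MS/MS and t1/2 assumed first-order kinetics.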

T1 sequence (P28335 33-458): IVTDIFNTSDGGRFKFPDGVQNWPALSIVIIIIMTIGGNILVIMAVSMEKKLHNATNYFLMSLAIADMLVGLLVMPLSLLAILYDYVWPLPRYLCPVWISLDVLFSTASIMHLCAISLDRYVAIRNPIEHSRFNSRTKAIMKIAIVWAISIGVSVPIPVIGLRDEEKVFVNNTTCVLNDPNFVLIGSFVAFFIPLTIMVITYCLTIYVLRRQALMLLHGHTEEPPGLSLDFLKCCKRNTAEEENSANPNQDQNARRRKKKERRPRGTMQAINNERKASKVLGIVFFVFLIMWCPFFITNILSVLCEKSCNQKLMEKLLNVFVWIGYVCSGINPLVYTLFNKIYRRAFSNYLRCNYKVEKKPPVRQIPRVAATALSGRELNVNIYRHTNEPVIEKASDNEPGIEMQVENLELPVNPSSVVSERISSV
T1 sequence (P32121 whole entry partner): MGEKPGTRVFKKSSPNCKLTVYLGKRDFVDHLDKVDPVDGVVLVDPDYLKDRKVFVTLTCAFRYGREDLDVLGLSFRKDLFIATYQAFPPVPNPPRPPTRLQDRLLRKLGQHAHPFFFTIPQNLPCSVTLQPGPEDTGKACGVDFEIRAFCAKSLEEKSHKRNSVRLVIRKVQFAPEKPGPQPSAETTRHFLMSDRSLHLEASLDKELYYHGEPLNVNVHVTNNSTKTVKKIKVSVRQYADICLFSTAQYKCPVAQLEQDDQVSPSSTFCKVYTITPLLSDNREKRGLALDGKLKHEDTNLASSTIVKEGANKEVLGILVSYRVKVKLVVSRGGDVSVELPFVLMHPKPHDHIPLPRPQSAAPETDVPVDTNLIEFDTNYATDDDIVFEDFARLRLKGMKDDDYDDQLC

Take `COc1nc(N2CCC(C3CCC(C(F)(F)F)CC3)CC2)c(F)cc1CNC(=O)[C@@H]1CCCN1` (stereo partly drawn) [Example 180, (2S)—N-[[5-Fluoro-2-methoxy-6-[4-[4-(trifluoromethyl)cyclohexyl]-1-piperidyl]-3-pyridyl]methyl]pyrrolidine-2-carboxamide; 2,2,2-trifluoroacetic Acid]: at 5-HT2C receptor, the EC50 was in the range of 0.2 to 1 µM and the Emax was above 70%. For the same compound, the CLint scaled at 0.5 μM in data set [1] (human, liver microsomes) lay within 50 to 500 L/h/kg.
`COc1nc(N2CCCC(F)(F)C2)c(F)cc1CNC(=O)[C@@H]1CCCN1` [Example 156, (2S)—N-[[6-(3,3-Difluoro-1-piperidyl)-5-fluoro-2-methoxy-3-pyridyl]methyl]-pyrrolidine-2-carboxamide; 2,2,2-trifluoroacetic Acid]: on 5-HT2C receptor, the EC50 was in the range of 0.02 to 0.2 µM and the Emax lay in the range of 50 to 70%. The CLint scaled at 0.5 μM in data set [1] (human, liver microsomes) was below 5 L/h/kg.
In the same order, the values of `COc1nc(OC2CCC(C(F)(F)F)CC2)c(F)cc1CNC(=O)[C@H]1NC[C@H]1C` (stereo partly drawn) [Example 79, (2S,3R)—N-[[5-Fluoro-2-methoxy-6-[4-(trifluoromethyl)cyclohexoxy]-3-pyridyl]-methyl]-3-methyl-azetidine-2-carboxamide; Fumaric Acid] are 0.02 to 0.2 µM, 30 to 50% and 50 to 500 L/h/kg.
Regarding `COc1nc(O[C@H]2CC[C@H](C(F)(F)F)CC2)c(F)cc1CNC(=O)[C@@H]1CCCN1C` [Example 8, (2S)—N-[[5-Fluoro-2-methoxy-6-[trans-4-(trifluoromethyl)cyclohexoxy]-3-pyridyl]methyl]-1-methyl-pyrrolidine-2-carboxamide; Fumaric Acid], at 5-HT2C receptor, the EC50 is below 0.02 µM and the Emax is above 70%. Also, the CLint scaled at 0.5 μM in data set [1] (human, liver microsomes) lay in the range of 5 to 50 L/h/kg.
In the case of `COc1nc(OC2CCC(F)(F)CC2)c(F)cc1CNC(=O)C(C)N1CCC1` (centres unmarked) [Example 43, 2-(Azetidin-1-yl)-N-[[6-(4,4-difluorocyclohexoxy)-5-fluoro-2-methoxy-3-pyridyl]-methyl]propanamide; Succinic Acid], on 5-HT2C receptor, the EC50 fell in the range of 0.02 to 0.2 µM and the Emax is above 70%. Also, the CLint scaled at 0.5 μM in data set [1] (human, liver microsomes) is below 5 L/h/kg.
Regarding `COc1nc(NC2CCC2)c(F)cc1CNC(=O)[C@@H]1CCCN1` [Example 146, (2S)—N-[[6-(Cyclobutylamino)-5-fluoro-2-methoxy-3-pyridyl]methyl]pyrrolidine-2-carboxamide; 2,2,2-trifluoroacetic Acid], on 5-HT2C receptor, the EC50 fell in the range of 0.02 to 0.2 µM and the Emax is above 70%. Moreover, in data set [1] (human, liver microsomes), the CLint scaled at 0.5 μM is below 5 L/h/kg.
In the same order, the values of `COc1nc(OCC2CCC(C(F)(F)F)CC2)c(F)cc1CNC(=O)[C@@H]1CCCN1C` (stereo partly drawn) [Example 15, (2S)—N-[[5-Fluoro-2-methoxy-6-[[4-(trifluoromethyl)cyclohexyl]methoxy]-3-pyridyl]methyl]-1-methyl-pyrrolidine-2-carboxamide] are below 0.02 µM, above 70% and 50 to 500 L/h/kg.
Take `COc1nc(N[C@H]2CC[C@@H](C(F)(F)F)CC2)c(F)cc1CNC(=O)[C@@H]1CCCN1.Cl` [Example 142, (2S)—N-[[5-Fluoro-2-methoxy-6-[[cis-4-(trifluoromethyl)cyclohexyl]amino]-3-pyridyl]methyl]pyrrolidine-2-carboxamide Hydrochloride]: on 5-HT2C receptor, the EC50 was below 0.02 µM and the “% efficacy” value was “+++ (>70%)”. Moreover, the “Cl int, mic unb. (h) [l/h/kg] (unbound intrinsic clearance, human)” value in data set [1] is recorded as “++ (from 5 to <50 l/h/kg)”.
Take `COc1nc(OC2CCC3(CC2)CC3(F)F)c(F)cc1CNC(=O)[C@@H]1CCCN1` (stereo partly drawn) [Example 118, (2S)—N-[[6-(2,2-Difluorospiro[2.5]octan-6-yl)oxy-5-fluoro-2-methoxy-3-pyridyl]methyl]pyrrolidine-2-carboxamide; 2,2,2-trifluoroacetic Acid]: at 5-HT2C receptor, the EC50 is below 0.02 µM and the Emax is above 70%. Further, the CLint scaled at 0.5 μM in data set [1] (human, liver microsomes) lay within 5 to 50 L/h/kg.
Turning to `COc1nc(NCC2CCC(F)(F)CC2)c(F)cc1CNC(=O)[C@@H]1CCCN1` [Example 169, (2S)—N-[[6-[(4,4-Difluorocyclohexyl)methylamino]-5-fluoro-2-methoxy-3-pyridyl]methyl]pyrrolidine-2-carboxamide; 2,2,2-trifluoroacetic Acid], on 5-HT2C receptor, the EC50 was below 0.02 µM and the Emax is above 70%. The CLint scaled at 0.5 μM in data set [1] (human, liver microsomes) is below 5 L/h/kg.
In the same order, the values of `COc1nc(OC[C@@H]2CCC(F)(F)C2)c(F)cc1CNC(=O)[C@@H]1CCCN1` [Example 33, (2S)—N-[[6-[[(1R)-3,3-Difluorocyclopentyl]methoxy]-5-fluoro-2-methoxy-3-pyridyl]methyl]pyrrolidine-2-carboxamide; Fumaric Acid] are below 0.02 µM, above 70% and below 5 L/h/kg.
The matching figures for `COc1nc(OCC(F)F)c(F)cc1CNC(=O)[C@@H]1CCCN1` [Example 86, (2S)—N-[[6-(2,2-Difluoroethoxy)-5-fluoro-2-methoxy-3-pyridyl]methyl]pyrrolidine-2-carboxamide; 2,2,2-trifluoroacetic Acid]: below 0.02 µM, above 70% and below 5 L/h/kg.
On to `COc1nc(O[C@H]2CC[C@@H](C(F)(F)F)CC2)c(F)cc1CN(C)C(=O)[C@@H]1CCCN1` [Example 119, (2S)—N-[[5-Fluoro-2-methoxy-6-[cis-4-(trifluoromethyl)cyclohexoxy]-3-pyridyl]-methyl]-N-methyl-pyrrolidine-2-carboxamide hydrochloride], for which, at 5-HT2C receptor, the EC50 fell in the range of 0.02 to 0.2 µM and the Emax was above 70%. The CLint scaled at 0.5 μM in data set [1] (human, liver microsomes) lay within 5 to 50 L/h/kg.
As for `COc1nc(OC(C)C(F)(F)C(F)F)c(F)cc1CNC(=O)[C@@H]1CCCN1` (stereo partly drawn) [Example 53, (2S)—N-[[5-Fluoro-2-methoxy-6-(2,2,3,3-tetrafluoro-1-methyl-propoxy)-3-pyridyl]-methyl]pyrrolidine-2-carboxamide; Succinic Acid], at 5-HT2C receptor, the EC50 is below 0.02 µM and the Emax was above 70%. Further, in data set [1] (human, liver microsomes), the CLint scaled at 0.5 μM is below 5 L/h/kg.
For the compound `COc1nc(Nc2ccc(F)cc2)c(F)cc1CNC(=O)[C@@H]1CCCN1` [Example 178, (2S)—N-[[5-Fluoro-6-(4-fluoroanilino)-2-methoxy-3-pyridyl]methyl]pyrrolidine-2-carboxamide; 2,2,2-trifluoroacetic Acid], the half-maximal effective concentration (EC50) on 5-HT2C receptor fell in the range of 0.2 to 1 µM. Also, in data set [1] (human, liver microsomes), the CLint scaled at 0.5 μM was below 5 L/h/kg.
With `COc1nc(OC2CCC(F)(F)CC2)c(F)cc1CNC(=O)[C@@H]1C[C@@H](C)CN1` [Example 59, (2 S,4R)—N-[[6-(4,4-Difluorocyclohexoxy)-5-fluoro-2-methoxy-3-pyridyl]methyl]-4-methyl-pyrrolidine-2-carboxamide Hydrochloride], on 5-HT2C receptor, the EC50 was below 0.02 µM and the Emax is 50 to 70%. Also, the CLint scaled at 0.5 μM in data set [1] (human, liver microsomes) is below 5 L/h/kg.
As for `COc1nc(OC2CCC(C(C)(F)F)CC2)c(F)cc1CNC(=O)[C@@H]1CCCN1` (single isomer, unassigned; isomer 2) [Example 74], on 5-HT2C receptor, the EC50 is below 0.02 µM and the “% efficacy” value was “+++ (>70%)”. The “Cl int, mic unb. (h) [l/h/kg] (unbound intrinsic clearance, human)” value in data set [1] is “++ (from 5 to <50 l/h/kg)”.
In the case of `COc1nc(N2CC(F)(F)C(F)(F)C(F)(F)C2)c(F)cc1CNC(=O)[C@@H]1CCCN1` [Example 182, (2S)—N-[[5-Fluoro-6-(3,3,4,4,5,5-hexafluoro-1-piperidyl)-2-methoxy-3-pyridyl]-methyl]pyrrolidine-2-carboxamide Hydrochloride], on 5-HT2C receptor, the EC50 is below 0.02 µM and the Emax was above 70%. Also, the CLint scaled at 0.5 μM in data set [1] fell in the range of 5 to 50 L/h/kg.
As to `COc1nc(N2CC(Cc3ccccc3)C2)c(F)cc1CNC(=O)[C@@H]1CCCN1` [Example 194, (2S)—N-[[6-(3-Benzylazetidin-1-yl)-5-fluoro-2-methoxy-3-pyridyl]methyl]-pyrrolidine-2-carboxamide], at 5-HT2C receptor, the EC50 is 0.02 to 0.2 µM and the Emax is above 70%. Besides, in data set [1] (human, liver microsomes), the CLint scaled at 0.5 μM was in the range of 50 to 500 L/h/kg.
